The values that follow come from US7897620B2, “Methods of using anti-inflammatory compounds” (Cambridge Enterprise Limited, priority 2007, dated 2011).

Like-named read-outs stand apart in the source and are kept apart here. Marks after values point to notes of the source that are not given here.

Data set [1] can be described thus: Distribution of compounds into tissues and unchanged parent in urine 24 hrs after a single oral dose. Format: in vivo. The note with it: rat; for concentration at 24 h: 24 hrs after single oral dose 3 mg/kg in 1% CMC, nd = not detected, LLOQ 2.4 ng/g. As to the method: Urine was collected from rats exposed to a single oral dose (3 mg/kg in 1% CMC) of each compound over a 24 hour period in metabolic cages. The pooled urine sample was then subjected to full scan mass spectral analysis, using the same LC-MS conditions as described in example 1 above. Further MS-MS analysis of the product ions was then performed, and likely fragmentations/re-arrangements assigned from the publicly available Metabolite ID database.
To provide a quantitative estimate of the degree of metabolism suffered by each of the compounds tested, the amount of unchanged parent compound in urine was measured using the same validated LC-MS assay described in example 1, using (S)-3-(2′,2′-dimethylpropanoylamino)-caprolactam as an internal standard. In addition, the level of compounds in various target tissues was also determined.

Data set [2] in a line: Pharmacokinetics following a single dose in rat (LC-MS/MS of blood, one-compartment model). The format is in vivo. The note with it: for AUC(0-inf): single oral dose 3 mg/kg in 1% CMC, read-out: Exposure (AUC 0->infinity) (converted); for clearance: read-out: Clearance; for bioavailability: po, 3 mg/kg. As to the method:
Compounds were administered as a single dose (either 1 mg/kg bodyweight in 5% DMSO via the intravenous route or 3 mg/kg in 1% carboxymethylcellulose via the oral route) to three adult rats (using different rats for each compound and each route of administration).
Blood was then sampled at various time points (including just prior to dose administration) out to 24 hrs post dose, and the level of the various compounds was assessed using a validated LC-MS/MS assay. Briefly, 3-5 μl of the deproteinised sample was applied to a Waters Atlantis (C18 20×2.1 mm, 3 μm bead size) reverse phase chromatography column equilibrated in 0.1% formic acid in 95:5 water:actetonitrile. Over 3.5 minutes bound material was gradient eluted reaching 0.1% formic acid in 5:95 water:acetonitrile, followed by a step gradient back to 0.1% formic acid in 95:5 water:acetonitrile. The column eluent was then directed to an Applied Biosystems API 4000/3200 QTrap MS/MS mass spectrometer, with a Turbolonspray™ ion source operating in positive ion mode. The interface temperature was set at 650° C., with a 40 ms dwell time for each MRM transition, monitoring the following ions:
The internal standard in each determination was the related compound (S)-3-(2′,2′-dimethylpropanoylamino)-caprolactam, which was spiked into the sample prior to deproteinization. The lower limit of quantitation (LLOQ) for this assay was 2.4 ng/ml for each compound except (I′), where it was 38.1 ng/ml.
Following LC-MS/MS analysis of each collected sample, the pharmacokinetic disposition of the compound was modelled using Kinetica software, a well known software package for such applications.

Data set [3] relates to S. Typhinurium (TA 102, TA98 and TA 100). Nature of the data set: AMES test, revertant colony formation. The format is cell-based. The note with it: for Revertant colony formation TA98 + S9: TA98 with S9, top dose 5 mg/ml; for Revertant colony formation TA98: TA98 without S9, top dose 5 mg/ml; for Revertant colony formation TA100 + S9: TA100 with S9 rat liver microsomal system, top dose 5 mg/ml; for Revertant colony formation TA100: TA100 without S9, top dose 5 mg/ml; for Revertant colony formation TA102 + S9: TA102 with S9, top dose 5 mg/ml; for Revertant colony formation TA102: TA102 without S9, top dose 5 mg/ml. On the procedure:
The five compounds were subjected to a standard AMES test to assess likely genotoxicity. Three His-auxotroph strains of S. Typhinurium (TA 102, TA98 and TA 100) were treated with each of the compounds at 5 concentrations (up to 5 mg/ml) in the presence and absence of S9 rat liver microsomal metabolising system. The number of revertant colonies was then determined by plating on trace-His minimal media.
(In general: Microsomes from liver hold many membrane-bound enzymes, among them those of drug oxidation.)

The mark [4] stands for this setting: blood, Rat, Intravenous PK (1 mg/kg), read-out: Half-life.
Where [5] appears, read: blood, Rat, Oral PK (3 mg/kg), read-out: Half-life.
[6] abbreviates: blood, rat, averaged across three rats.
[7] abbreviates: plasma, iv, 1 mg/kg, rat, one-compartment model, averaged across three rats, read-out: t½ (mins) dominant plasma half-life.
[8] abbreviates: rat, blood, iv, 1 mg/kg, Rat, Intravenous PK (1 mg/kg).
Where [9] appears, read: rat, blood, iv, 1 mg/kg, Rat, Intravenous PK (1 mg/kg), read-out: Vss.
The mark [10] stands for this setting: rat, blood, iv, 1 mg/kg, rat, one-compartment model, averaged across three rats, read-out: Vss (L/kg) volume of distribution.
The mark [11] stands for this setting: rat, blood, Rat, Oral PK (3 mg/kg), read-out: Bioavailability (%).
Setting [12] is: rat, blood, rat, 1 mg/kg iv in 5% DMSO and 3 mg/kg oral in 1% CMC, one-compartment model, averaged across three rats, read-out: F (%) oral bioavailability.
Where [13] appears, read: rat, blood, iv, 1 mg/kg, rat, one-compartment model, averaged across three rats.
Setting [14] is: rat, one-compartment model, averaged across three rats.

Broadly, the half-life is the time needed for the level to fall by half in the phase considered. For orientation: AUC means the area under the concentration-time curve, a measure of exposure. A word on the Tmax: it is the time at which the peak concentration occurs. By clearance is commonly meant a measure of how efficiently the substance is removed, as volume per time. Broadly, the bioavailability is dose-corrected exposure relative to a reference, in per cent. For `CC(C)(C)C(=O)N[C@H]1CCCNC1=O` [Compound (I′), 3-(2′,2′-dimethylpropanoylamino)-tetrahydropyridin-2-one], the concentration at 24 h worked out at 1.6 ng/g in data set [1] (brain, read-out: Level of compound in Brain); 5.3 ng/g in data set [1] (heart, read-out: Level of compound in Heart); 5.1 ng/g in data set [1] (kidney, read-out: Level of compound in Kidney); 3.6 ng/g in data set [1] (liver, read-out: Level of compound in Liver); 21.9 ng/g in data set [1] (lung, read-out: Level of compound in Lung); 3.1 ng/g in data set [1] (muscle, read-out: Level of compound in Muscle). Besides, the half-life in data set [2] (setting [4]) was 196 min; in data set [2] (setting [5]), 226 min; in data set [2] (plasma, intravenous, 1 mg/kg, rat, read-out: plasma half-life) it was over 180 min; in data set [2] (setting [7]), 196 min. This molecule also gave an AUC in data set [2] (blood, Rat, Oral PK (3 mg/kg)) of 15600 ng·h/mL. Further, in data set [2] (blood, Rat, Oral PK (3 mg/kg)), the Tmax is 15 to 120 min. In addition, in data set [2] (setting [6]), the AUC(0-inf) is 15600 ng·h/mL. In data set [2] (rat), the “clearance, times lower than for the other lactam BSCIs” value is listed as “more than 10 fold”. The clearance is 2.6 mL/min/kg in data set [2] (rat, blood, intravenous, 1 mg/kg, rat, one-compartment model, averaged across three rats) and 2.6 mL/min/kg in data set [2] (setting [8]). Further, the Vd in data set [2] (setting [9]) and in data set [2] (setting [10]) was 0.7 L/kg in each case. Also, the bioavailability in data set [2] (setting [11]) came to 81%; in data set [2] (setting [12]), 69%. Further, in data set [2] (rat, oral), the “exposure relative to the next best compound (V)” value is about 20 fold. In data set [2] (rat, versus the other compounds examined), the “plasma half-life, fold longer” value came out at 10 fold. For the same molecule, in data set [3], the “Revertant colony formation TA98 + S9” value amounted to 1.23. Also, the “Revertant colony formation TA98” value in data set [3] is reported as 2.00**. Further, the “Revertant colony formation TA100 + S9” value in data set [3] turned out to be 0.95. Moreover, the “Revertant colony formation TA100” value in data set [3] is 0.97. Further, the “Revertant colony formation TA102 + S9” value in data set [3] was found to be 0.93. Moreover, the “Revertant colony formation TA102” value in data set [3] is on record as 0.82.

With `CC(C)(C)S(=O)(=O)N[C@H]1CCCCNC1=O` [(IV), 3-(1′,1′-dimethylethylsulfonylamino)-caprolactam], the “fraction of the injected dose recovered unchanged in urine” value in data set [1] (24 hrs, single oral dose 3 mg/kg) is listed as “less than 10%”. The AUC(0-inf) in data set [2] (setting [6]) is 690 ng·h/mL. In addition, the half-life in data set [2] (setting [7]) came to 19 min. Also, in data set [2] (setting [13]), the clearance is 32 mL/min/kg. Also, in data set [2] (setting [10]), the Vd is 0.6 L/kg. Further, in data set [2] (setting [12]), the bioavailability is 45%. For the same molecule, in data set [3], the “Revertant colony formation TA98 + S9” value is given as 0.90, the “Revertant colony formation TA98” value is 0.82, the “Revertant colony formation TA100 + S9” value is 0.90 and the “Revertant colony formation TA100” value worked out at 0.89. Besides, in data set [3], the “Revertant colony formation TA102 + S9” value is on record as 0.88 and the “Revertant colony formation TA102” value was 0.85.

For the molecule `O=C1NCCCC[C@@H]1NC(=O)C12CC3CC(CC(O)(C3)C1)C2` [(V), 3-(3′-hydroxyadamantyl-1-carbonylamino)-caprolactam], the half-life in data set [2] (setting [4]) amounted to 24 min. In addition, in data set [2] (blood, Rat, Oral PK (3 mg/kg)), the AUC is 952 ng·h/mL and the Tmax was 15 min. Also, the half-life in data set [2] (setting [5]) was 24 min. For the same molecule, the AUC(0-inf) in data set [2] (setting [6]) is 952 ng·h/mL. In data set [2] (setting [7]), the half-life was 24 min. Moreover, the clearance in data set [2] (setting [8]) amounted to 33 mL/min/kg. Besides, in data set [2] (setting [9]), the Vd amounted to 0.8 L/kg. In addition, the clearance in data set [2] (setting [13]) was 31 mL/min/kg. Besides, in data set [2] (setting [10]), the Vd was found to be 1.4 L/kg. In addition, the bioavailability in data set [2] (setting [11]) worked out at 59%. Also, the bioavailability in data set [2] (setting [12]) stood at 59%. Moreover, in data set [3], the “Revertant colony formation TA98 + S9” value turned out to be 0.91, the “Revertant colony formation TA98” value is 0.96, the “Revertant colony formation TA100 + S9” value is listed as 0.88 and the “Revertant colony formation TA100” value was 0.78. Further, in data set [3], the “Revertant colony formation TA102 + S9” value is 1.09 and the “Revertant colony formation TA102” value was 0.93.

For the molecule `O=C1NCCCC[C@@H]1NC(=O)C12CC3CC(CC(C3)C1)C2` [(II), 3-(adamantane-1-carbonylamino)-caprolactam], the AUC(0-inf) in data set [2] (setting [6]) is 7.95 ng·h/mL. For the same molecule, the “F (%) oral bioavailability” value in data set [2] (rat, 1 mg/kg iv in 5% DMSO and 3 mg/kg oral in 1% CMC, one-compartment model, averaged across three rats) is reported as under 1%. Moreover, the clearance in data set [2] (setting [13]) worked out at 84 mL/min/kg. In data set [2] (setting [14]), the “Vss (L/kg) volume of distribution” value stood at 0.8 L/kg and the “t½ (mins) dominant plasma half-life” value was determined as 16 min. For the same molecule, in data set [3], the “Revertant colony formation TA98 + S9” value is listed as 0.60*, the “Revertant colony formation TA98” value is reported as 0.58*, the “Revertant colony formation TA100 + S9” value came to 0.73 and the “Revertant colony formation TA100” value is 0.59*. In data set [3], the “Revertant colony formation TA102 + S9” value is recorded as 0.93 and the “Revertant colony formation TA102” value is given as 0.50*.
